Source: patent US9242008B2, “Mineral amino-acid complexes of fatty acids” (Thetis Pharmaceuticals LLC, priority 2014, dated 2016)

Tests used:
[1] = single dose, oral pharmacokinetic study in rats (total EPA plasma levels); assay type: in vivo
Source text: The results of a single dose, oral pharmacokinetic study in rats for a compound of Formula III (designated TP-252, Mg-Lys2-EPA2) are shown in Table 1 below. One of the parameters shown in Table 1 is the area under the curve (AUC), which is the integral of a plot of concentration of drug in blood plasma against time. The AUC is proportional to the total amount of the active pharmaceutical agent (API) that reaches the blood circulation. In this example, the API (or analyte) is EPA. AUC and Cmax are given for the compound of Formula III, EPA free fatty acid (EPA FFA), and EPA ethyl ester (EPA EE). EPA ethyl ester is the FDA-approved form of EPA.

[2] = Physical stability study (proton NMR after exposure to air at room temperature); assay type: physicochemical
Source text: FIG. 1: Proton NMR spectrum of magnesium bis-lysinate bis-EPA taken on the day the compound was synthesized (upper trace) and 60-days later (lower trace) with the compound having been exposed to air at room temperature for the entire 60-day period.
The compounds of the invention are remarkably stable compared to omega-3 polyunsaturated free fatty acids, which typically show evidence of oxidative degradation with hours of exposure to atmospheric oxygen. […] The upper tracing in FIG. 1 is a proton NMR spectrum of magnesium bis-lysinate bis-EPA taken on the day the compound was synthesized. The lower tracing is the NMR taken 60-days later with the compound having been exposed to air at room temperature for the entire period.

Baseline and EPA Molar Dose Equivalent Adjusted Cmax of Total EPA in plasma ([1]; total dose 40.0 mg/kg, analyte EPA, Cmax minus predose level, multiplied by EPA molar dose adjustment factor): 13200 ng/mL
Baseline and EPA Molar Dose Equivalent Adjusted AUC0-18 hrs of Total EPA in plasma ([1]; total dose 40.0 mg/kg, analyte EPA, baseline adjusted and multiplied by EPA molar dose adjustment factor): 133 µg·h/mL
time chemically stable ([2]; room temperature, exposed to air): at least 60 days
Compound: CC/C=C\C/C=C\C/C=C\C/C=C\C/C=C\CCCC(=O)O.CC/C=C\C/C=C\C/C=C\C/C=C\C/C=C\CCCC(=O)O.NCCCC[C@H](N)C(=O)[O-].NCCCC[C@H](N)C(=O)[O-].[Mg+2] [TP-252, magnesium bis-lysinate bis-EPA dihydrate]
EPA delivered to the blood plasma versus equivalent doses of EPA free fatty acid or EPA ethyl ester [1]: delivers significantly more EPA to the blood plasma
proton NMR evidence of oxidation or degradation ([2]; after 60 days exposed to air at room temperature versus day of synthesis): no evidence of oxidation or degradation by other mechanisms
